US20250188088A1, “COMPOUND AND USE THEREOF” (ONQUALITY PHARMACEUTICALS CHINA LTD., priority 2022, published 2025)
≈ marks a conversion by molar mass, not a printed value. Like-named read-outs stand apart in the source and are kept apart here.

Experiments:
[1] = Log D measurement (n-octanol/PBS shake, LC-MS/MS); type: physicochemical; details: pH 7.4, read-out: LogD7.4 (Oct/buff)
Protocol: Two replicates of test compounds (DMSO stock solution 10 mM, 2 μL/well) and QCs (DMSO 10 mM, 2 μL/well) were transferred from the storage tube to a 96-well cluster tube. Add buffer-saturated n-octanol ([…]) and n-octanol-saturated PBS (149 μL/well) to each well; vortex mix the cluster tube for 1 minute, mix by shaking on a plate shaker at 880 rpm for one hour, and then centrifuge at 4000 rpm for 10 minutes. Remove the cover pad, accurately measure a certain amount of n-octanol layer samples (4 μL/well) into a 96-well plate containing n-octanol internal standard diluent (796 μL/well); accurately measure a certain amount of buffer salt layer samples (30 μL/well) into a 96-well plate containing buffer internal standard diluent (570 μL/well); the dilution factor of the sample can be adjusted according to different properties of the sample. Samples were analyzed using a triple quadrupole mass spectrometer. The processed sample solution was analyzed by the fast isocratic elution and small column retention method, the concentration correction was carried out by dilution factor and internal standard, and the ratio of the corrected peak area was used to calculate the final result (Log D/Log P value).

[2] = Thermodynamic solubility assay (PBS pH 6.5; isopropyl myristate); type: physicochemical; details: thermodynamic from solid
Protocol: Thermodynamic Solubility Assay
Weigh not less than 2 mg of the sample powder into a Whatman Mini-UniPrep vial. If it is required to test the thermodynamic solubility of samples in multiple buffers, a separate vial is needed for each test; add 450 μL of buffer to each Whatman Mini-UniPrep vial, respectively; after that, install the piston cap of Whatman Mini-UniPrep and press it above the liquid level, so that the filter is in contact with the buffer during shaking; shake the solubility sample by vortexing for 1 minute.
Inject 3 UV standard solutions from low to high concentrations into the HPLC, then inject the diluent and supernatant of the test compound, with two replicates of test sample; and integrate the UV peaks. Simulate a standard curve and calculate the thermodynamic solubility of the sample.

[3] = tested on: rash caused by small molecule EGFR inhibitors; experiment: Treatment of rash caused by small molecule EGFR inhibitors, topical ointment, rat model; type: in vivo, SD rats
Protocol: An Experiment to Verify the Treatment of Rash Caused by Small Molecule EGFR Inhibitors with Topical Administration of Compounds of the Present Application on a Rat Animal Model After the SD rats were fed and adapted for one week (about 200 g), the rats were divided into 10 rats per group. The hair on the back of rats was gently removed with an electric razor one day before the experiment, and then an intragastric administration test was carried out. EGFR inhibitors were dissolved in a sterile aqueous solution, and diluted with PBS buffer; the amount of each gavage was not more than 2 mL, and the dosage was shown in Table 3. […] The experiments were divided into the administration group with the compound of the present application and the control group. During the treatment experiment, EGFR inhibitors were intragastrically administered continuously every day. After the gavage, the administration group applied the compound ointment of the present application on the back (about 3 cm*3 cm) of rats, and the control group applied blank matrix ointment on the back (about 3 cm*3 cm); after application, the rats were fixed with a fixed cyclinder for about 4 hours, and then the rats were released, with the residual drug at the application site wiped off with clean water, and put back into the cage. The frequency of intragastric administration of EGFR inhibitors is shown in Table 3, but the compounds of the present application and blank ointment are applied only once a day. […] Table 3 lists the animal experiment combinations of various small molecule EGFR inhibitors and the compound ointment of the present application, as well as the corresponding experiment results (wherein, the value in the control rate column=the number of rats whose rash is milder in the administration group than that in the control group/the total number of rats in the administration group×100%).

[4] = tested on: skin contact delayed-type hypersensitivity; experiment: Skin contact delayed-type hypersensitivity (DNFB) response test, ear swelling, topical ointment; type: in vivo; details: topical to ears, DNFB DTH, Balb/c mice, compared to blank ointment
Summary of the method: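 Balb/c mice sensitized with DNFB on the back on Days 0–1, then challenged on Day 5 with 0.2% DNFB on both ears. Ear thickness measured by micrometer 24–72 h after challenge. Compound ointment applied topically over Days −1–7 or Days 4–7; effect is the reduction in ear swelling versus blank ointment, with ≥20% deemed effective.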

C[C@@H]1CCN(C(=O)CC#N)C[C@@H]1N(C)c1ncnc2c1ccn2C(=O)N(C)CCOC(=O)C1CCCO1 (stereo partly shown) [Compound A7]
logD [1]: 0.63
solubility thermodynamic at 24 h ([2]; aqueous buffer, PBS buffer pH 6.5, about 25° C., read-out: Thermodynamic Solubility pH = 6.5): 4.39 mg/mL (≈ 8.58 mM)
solubility thermodynamic at 24 h ([2]; oil or lipid, isopropyl myristate as vehicle, about 25° C., read-out: Thermodynamic Solubility in Isopropyl Myristate): 0.375 mg/mL (≈ 0.733 mM)
Control Rate ([3]; Afatinib 40 mg/kg once a day, 6 dosing modelling days, ointment 0.1 wt% once a day): 20%
Control Rate ([3]; Afatinib 40 mg/kg once a day, 6 dosing modelling days, ointment 3.0 wt% once a day): 60%
Control Rate ([3]; BPI-7711 60 mg/kg once a day, 6 dosing modelling days, ointment 3.0 wt% once a day): 70%
Control Rate ([3]; EAI045 80 mg/kg once a day, 8 dosing modelling days, ointment 1.0 wt% once a day): 50%
Control Rate ([3]; EAI045 80 mg/kg once a day, 8 dosing modelling days, ointment 5.0 wt% once a day): 80%
Control Rate ([3]; Larotinib 20 mg/kg once a day, 6 dosing modelling days, ointment 3.0 wt% once a day): 6%
Control Rate ([3]; Osimertinib 60 mg/kg twice a day, 7 dosing modelling days, ointment 3.0 wt% once a day): 10%
Control Rate ([3]; Osimertinib 60 mg/kg twice a day, 7 dosing modelling days, ointment 10.0 wt% once a day): 70%
Reduction Rate of Ear Swelling ([4]; ointment 0.05 wt%): 18%
Reduction Rate of Ear Swelling ([4]; ointment 0.1 wt%): 22%
Reduction Rate of Ear Swelling ([4]; ointment 1.0 wt%): 27%
Reduction Rate of Ear Swelling ([4]; ointment 5.0 wt%): 35%
Reduction Rate of Ear Swelling ([4]; ointment 10.0 wt%): 42%
